Read-outs that look alike come from different tables or passages of the source.
Experiments:
[1] = molecular target: GSK3b (GST-full length GSK3b) (Homo sapiens (Human), UniProt P49841); experiment: GSK3b TR-FRET kinase assay; format: biochemical; settings: 1 nM GSK3b, 2 μM ATP, 30 minute preincubation, Table 16, read-out: GSK3-B TR-FRET BIOCHEMICAL (TR-FRET)
Procedure, shortened: (§1)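 Compound preincubated 30 min, then 1 nM GST-full-length GSK3α or GSK3b run 100 min at ambient temperature with 200 nM biotinylated, S645-prephosphorylated glycogen synthase 631-650 peptide in Tris pH 7.5, MgCl2, DTT, BSA, 1% DMSO. ATP 4 μM (α) or 2 μM (β), or 1 mM. EDTA-quenched; Tb-anti-pSer641/streptavidin-d2 TR-FRET 665/615 ratio gave IC50.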

[2] = molecular target: GSK3α (GST-full length GSK3α) (Homo sapiens (Human), UniProt P49840); experiment: GSK3α TR-FRET kinase assay; format: biochemical; settings: 1 nM GSK3α, 4 μM ATP, 30 minute preincubation, Table 16, read-out: GSK3-A TR-FRET BIOCHEMICAL (TR-FRET)
Procedure, shortened: as §1

GSK3b (GST-full length GSK3b), sequence (P49841 whole entry): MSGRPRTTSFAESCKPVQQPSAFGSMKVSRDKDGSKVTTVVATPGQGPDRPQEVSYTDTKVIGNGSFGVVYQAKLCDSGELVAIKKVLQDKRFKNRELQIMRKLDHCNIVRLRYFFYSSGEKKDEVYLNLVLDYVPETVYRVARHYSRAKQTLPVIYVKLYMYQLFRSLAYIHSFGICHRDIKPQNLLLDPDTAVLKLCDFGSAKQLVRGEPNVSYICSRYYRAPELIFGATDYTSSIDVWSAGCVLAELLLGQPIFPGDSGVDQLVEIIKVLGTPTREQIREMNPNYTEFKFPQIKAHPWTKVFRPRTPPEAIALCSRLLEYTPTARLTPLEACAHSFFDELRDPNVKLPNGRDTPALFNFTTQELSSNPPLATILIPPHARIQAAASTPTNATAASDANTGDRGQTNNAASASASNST
GSK3α (GST-full length GSK3α), sequence (P49840 whole entry): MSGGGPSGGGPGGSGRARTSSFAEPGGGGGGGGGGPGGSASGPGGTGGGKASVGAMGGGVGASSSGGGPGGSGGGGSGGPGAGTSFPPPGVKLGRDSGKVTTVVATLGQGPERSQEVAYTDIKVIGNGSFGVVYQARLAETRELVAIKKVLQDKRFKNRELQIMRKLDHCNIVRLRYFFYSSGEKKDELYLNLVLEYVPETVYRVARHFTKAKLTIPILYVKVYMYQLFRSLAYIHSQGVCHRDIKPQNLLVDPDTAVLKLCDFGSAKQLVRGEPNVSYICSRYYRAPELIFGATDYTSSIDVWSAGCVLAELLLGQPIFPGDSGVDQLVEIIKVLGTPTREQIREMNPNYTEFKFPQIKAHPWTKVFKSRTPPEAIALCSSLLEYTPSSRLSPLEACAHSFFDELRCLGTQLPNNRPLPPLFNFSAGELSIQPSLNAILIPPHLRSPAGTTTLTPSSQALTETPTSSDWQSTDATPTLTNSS

IC50 ([1]; IC50) [nM]	IC50 ([2]; IC50) [nM]	IC50 [1] [nM]	IC50 [2] [nM]	SMILES
		100 to 1000	100 to 1000	CC1(C)CC(=O)C2=C(C1)Nc1n[nH]cc1C21COC1 [Compound 889569]
> 5000	> 5000			CC1(C)CC(=O)C2=C(C1)Nc1n[nH]cc1C2(CO)CO [Compound 889570]
> 5000	> 5000			CC1(C)CC(=O)C2=C(C1)Nc1n[nH]cc1C21CCCNCC1 (stereo not shown) [Compound 889571]
100 to 1000	100 to 1000			O=C1CC(C(F)(F)F)CC2=C1C1(CCOCC1)c1c[nH]nc1N2 (stereo not shown) [Compound 889572]
100 to 1000	≤ 100			O=C1CC2(CCOC2)CC2=C1C1(CCOCC1)c1c[nH]nc1N2 (stereo not shown) [Compound 889573]
		100 to 1000	100 to 1000	CC1(C)CC(=O)C2=C(C1)Nc1n[nH]cc1C21CCCN(CC(F)F)CC1 (stereo not shown) [Compound 889574]
1000 to 5000	100 to 1000			CC(=O)N1CCCC2(CC1)C1=C(CC(C)(C)CC1=O)Nc1n[nH]cc12 (stereo not shown) [Compound 889575]
		100 to 1000	100 to 1000	CC1(C)CC(=O)C2=C(C1)Nc1n[nH]cc1C21CCCN(CC(F)(F)F)CC1 (stereo not shown) [Compound 889576]
1000 to 5000	1000 to 5000			CC1(C)CC(=O)C2=C(C1)Nc1n[nH]cc1C21CCCN(C(=O)c2ccccc2)CC1 (stereo not shown) [Compound 889577]
		≤ 100	≤ 100	CC1(C)CC(=O)C2=C(C1)Nc1n[nH]cc1C21CCCN(S(=O)(=O)c2ccccc2)CC1 (stereo not shown) [Compound 889578]

More lines, now with the values behind:

SMILES	IC50 ([1]; IC50) [nM]	IC50 ([2]; IC50) [nM]	IC50 [1] [nM]	IC50 [2] [nM]
CC1CC(=O)C2=C(C1)Nc1n[nH]cc1C21CCOCC1 (stereo not shown) [Compound 884112]	100 to 1000	100 to 1000		
C[C@@H]1C[C@H](C)C[C@@]2(C1)C1=C(CC(C)(C)CC1=O)Nc1n[nH]cc12 [Compound 884113]			1000 to 5000	100 to 1000
C[C@@H]1C[C@H](C)C[C@]2(C1)C1=C(CC(C)(C)CC1=O)Nc1n[nH]cc12 [Compound 884114]			100 to 1000	100 to 1000
CCC1(c2cccc(N3CCCCC3)c2)C2=C(CC(C)(C)CC2=O)Nc2n[nH]c(C)c21 (stereo not shown) [Compound 884115]	100 to 1000	100 to 1000		
CO[C@H]1CC[C@]2(CC1)C1=C(CC(C)(C)CC1=O)Nc1n[nH]cc12 [Compound 884119]			100 to 1000	≤ 100
CO[C@H]1CC[C@@]2(CC1)C1=C(CC(C)(C)CC1=O)Nc1n[nH]cc12 [Compound 884120]			100 to 1000	100 to 1000
CCC1(c2cccc(N3CCCCCC3)c2)C2=C(CC(C)(C)CC2=O)Nc2n[nH]cc21 (stereo not shown) [Compound 885088]	100 to 1000	100 to 1000		
CCC1(c2cccc(N3CCCC3C)c2)C2=C(CC(C)(C)CC2=O)Nc2n[nH]cc21 (stereo not shown) [Compound 885204]	100 to 1000	≤ 100		
CCN(c1cccnc1)c1cccc(C2(CC)C3=C(CC(C)(C)CC3=O)Nc3n[nH]cc32)c1 (stereo not shown) [Compound 885331]	≤ 100	≤ 100		
CCC1(c2cccc(N(c3cccnc3)C(C)C)c2)C2=C(CC(C)(C)CC2=O)Nc2n[nH]cc21 (stereo not shown) [Compound 885344]	≤ 100	≤ 100		
CCN(c1cccc(C2(CC)C3=C(CC(C)(C)CC3=O)Nc3n[nH]cc32)c1)c1cccnc1C (stereo not shown) [Compound 885367]	1000 to 5000	100 to 1000		
CCC1(c2cccc(N(C)c3cnn(C)c3)c2)C2=C(CC(C)(C)CC2=O)Nc2n[nH]cc21 (stereo not shown) [Compound 885382]	1000 to 5000	100 to 1000		
CC[C@]1(c2cccc([C@H]3CCOC3)c2)C2=C(CC(C)(C)CC2=O)Nc2n[nH]cc21 [Compound 889558]	100 to 1000	≤ 100		
CCC1(c2cccc(C3CCOC3)c2)C2=C(CC(C)(C)CC2=O)Nc2n[nH]cc21 (stereo not shown) [Compound 889565]	1000 to 5000	100 to 1000		
CC1(C)CC(=O)C2=C(C1)Nc1n[nH]cc1C21CSC1 [Compound 889567]			100 to 1000	≤ 100
CC1(C)CC(=O)C2=C(C1)Nc1n[nH]cc1C21CN(C(=O)OCc2ccccc2)C1 [Compound 889568]			1000 to 5000	100 to 1000

From patent US20250313563A1, “GLYCOGEN SYNTHASE KINASE 3 INHIBITORS AND USES THEREOF” (The Broad Institute, Inc., priority 2022, published 2025)
